In US8334261B2, “Osteopenia animal model” (Oriental Yeast Co., Ltd., priority 2006, dated 2012):

Legend:
Assay type in all cases: in vivo, mouse
[1] = system: GST-RANKL-administered 7-week-old female C57BL/6N mice; assay: Evaluation of a bone mass increase with low-dose PTH in GST-RANKL mice
Procedure: GST-RANKL was intraperitoneally administered 2 times to groups of 7-week-old female C57BL/6N mice at 1 mg/kg every 24 hours. PTH was subcutaneously administered thereto at 40 or 80 μg/kg from 24 hours after the 2nd administration every 24 hours for 10 consecutive days. In addition, PBS was administered to a group serving as the control group for the GST-RANKL and PTH administration groups for comparison. The serum and femur were collected from each mouse 24 hours after the end of administration for 10 days.
The serum collected from each mouse was subjected to measurement of serum bone resorption markers (Ca and TRAP-5b) and an osteogenesis marker (ALP). Each femur was subjected to measurement of the total bone density, the cortical bone density, the cortical bone thickness, the cortical bone mineral content, and the cortical bone density in the diaphysis with pQCT at points 0.6, 0.8, and 1.0 mm […] the distal growth plate on the proximal side. In addition, image analysis was carried out with micro CT.

[2] = system: 7-week-old female C57BL/6N mice; assay: Evaluation of a bone mass increase with PTH (GST-RANKL, ovariectomy)
Procedure: GST-RANKL was administered twice to groups of 7-week-old female C57BL/6N mice at 1 mg/kg every 24 hours. Ovariectomy was performed 24 hours after the 2nd administration. In addition, parathyroid hormone (PTH) was subcutaneously administered thereto at 160 μg/kg from 24 hours after the ovariectomy for 10 consecutive days. Further, a group obtained by PBS administration and sham operation (Sham) was designated as a control group for comparison. The serum markers and the femur bone density were measured.

[3] = system: GST-RANKL-administered 7-week-old female C57BL/6N mice; assay: Evaluation of a bone mass increase with low-dose PTH in GST-RANKL mice; conditions: PTH 80 μg/kg; 1.0 mm

For parathyroid hormone [PTH], which “cortical bone density in the diaphysis, increase in GST-RANKL group” value ([1]; PTH 40 μg/kg) is on record?
Its value is 3%.

What about the “serum ALP concentration in GST-RANKL group” value ([1]; PTH 40 μg/kg) of the same substance?
Its value is “tended to decrease”.

And the “cancellous bone density increase in GST-RANKL group vs PBS” value ([1]; PTH 40 μg/kg, 0.6 mm)?
The value was 25%.

What about the “cortical bone mineral content increase in GST-RANKL group vs PBS” value ([1]; PTH 40 μg/kg, 0.6 mm) of the same substance?
The value was 80%.

And the “cortical bone thickness increase in GST-RANKL group vs PBS” value ([1]; PTH 40 μg/kg, 0.6 mm)?
The value was 86%.

And the “total bone density increase in GST-RANKL group vs PBS” value (“total bone density increase … vs PBS” for short) ([1]; PTH 40 μg/kg, 0.6 mm)?
Its value is 14%.

And the “cancellous bone density increase in GST-RANKL group vs PBS” value ([1]; PTH 40 μg/kg, 0.8 mm)?
The value was 28%.

What about the “cortical bone density increase in GST-RANKL group vs PBS” value ([1]; PTH 40 μg/kg, 0.8 mm) of the same substance?
The value was 4%.

And the “cortical bone mineral content increase in GST-RANKL group vs PBS” value ([1]; PTH 40 μg/kg, 0.8 mm)?
Its value is 123%.

What about the “cortical bone thickness increase in GST-RANKL group vs PBS” value ([1]; PTH 40 μg/kg, 0.8 mm) of the same substance?
Its value is 127%.

And the “total bone density increase … vs PBS” value ([1]; PTH 40 μg/kg, 0.8 mm)?
Its value is 17%.

What about the “cortical bone density increase in GST-RANKL group vs PBS” value ([1]; PTH 40 μg/kg, 1.0 mm) of the same substance?
The value was 5%.

What about the “cortical bone mineral content increase in GST-RANKL group vs PBS” value ([1]; PTH 40 μg/kg, 1.0 mm) of the same substance?
Its value is 100%.

And the “cortical bone thickness increase in GST-RANKL group vs PBS” value ([1]; PTH 40 μg/kg, 1.0 mm)?
The value was 98%.

And the “total bone density increase … vs PBS” value ([1]; PTH 40 μg/kg, 1.0 mm)?
Its value is 19%.

What about the “cortical bone density in the diaphysis, increase in GST-RANKL group” value ([1]; PTH 80 μg/kg) of the same substance?
The value was 3%.

And the “cancellous bone density increase in GST-RANKL group” value ([1]; PTH 80 μg/kg, 0.6 mm)?
The value was 20%.

What about the “cortical bone mineral content increase in GST-RANKL group” value ([1]; PTH 80 μg/kg, 0.6 mm) of the same substance?
The value was 46%.

What about the “cortical bone thickness increase in GST-RANKL group” value ([1]; PTH 80 μg/kg, 0.6 mm) of the same substance?
Its value is 50%.

And the “total bone density increase in GST-RANKL group” value ([1]; PTH 80 μg/kg, 0.6 mm)?
The value was 10%.

And the “cortical bone mineral content increase in GST-RANKL group” value ([1]; PTH 80 μg/kg, 0.8 mm)?
The value was 83%.

And the “cortical bone thickness increase in GST-RANKL group” value ([1]; PTH 80 μg/kg, 0.8 mm)?
The value was 89%.

What about the “total bone density increase in GST-RANKL group” value ([1]; PTH 80 μg/kg, 0.8 mm) of the same substance?
The value was 13%.

And the “cortical bone mineral content increase in GST-RANKL group” value ([1]; PTH 80 μg/kg, 1.0 mm)?
Its value is 77%.

What about the “cortical bone thickness increase in GST-RANKL group” value ([1]; PTH 80 μg/kg, 1.0 mm) of the same substance?
The value was 79%.

And the “total bone density increase in GST-RANKL group” value ([1]; PTH 80 μg/kg, 1.0 mm)?
Its value is 13%.

What about the “serum ALP concentration in GST-RANKL group” value ([1]; PTH 80 μg/kg, p<0.01) of the same substance?
The value was “significantly decreased”.

What about the “serum Ca concentration in GST-RANKL group” value ([1]; PTH 80 μg/kg, p<0.05) of the same substance?
Its value is “slightly significant decrease”.

And the “serum TRAP-5b concentration” value ([1]; PTH 40 or 80 μg/kg s.c. 10 days)?
Its value is “no significant changes”.

And the bone density decrease ([2]; PTH 160 μg/kg administered to the GST-RANKL+Sham group, p<0.05)?
Its bone density decrease is “significantly suppressed”.

And the femur bone density ([2]; PTH 160 μg/kg administered to the PBS+Sham group)?
Its femur bone density is “significantly increased exclusively at the 1.0-mm point”.

What about the “femur bone density increase” value ([2]; PTH 160 μg/kg in the OVX group) of the same substance?
Its value is “no significant difference”.

What about the “serum TRAP-5b concentration, fold as high as the relevant group not treated with PTH” value ([2]; every PTH administration group, 160 μg/kg s.c. 10 consecutive days) of the same substance?
The value was “approximately 1.5 fold”.

What about the “cortical bone density increase in GST-RANKL administration group” value [3] of the same substance?
Its value is 3%.
